Laboratory results taken from US20210038570A1, “COMPOSITIONS AND METHODS FOR TREATING CUTANEOUS FIBROSIS” (Timber Pharmaceuticals, Inc., priority 2018, published 2021).

Tests used:
[1] = in vivo; cited from earlier work
[2] = tested on: donor one normal human dermal fibroblasts induced with TGF-β1; experiment: Scratch (wound closure) assay, donor one NHDFs induced with TGF-β1; format: cell-based; conditions: for Scratch assay distance change: 50 ng/mL TGF-β1, 24 hours; for Effect on migration of fibroblasts (in words): donor one NHDFs, statistics at 100 μM vs vehicle control (FIG. 1)
Procedure: The effect of sitaxentan in a wound closure assay was measured using donor one normal human dermal fibroblasts induced with TGF-β1 into a profibrotic phenotype. […] For this assay the cells were grown to confluence, a scratch/ablation, i.e. “wound”, was created, and migration across the cleared zone was tracked. See, http://journals.plos.org/plosone/article?id=10.1371/journal.pone.0007438 and Wu, M. et al. Rosiglitazone abrogates bleomycin-induced scleroderma and blocks profibrotic responses through peroxisome proliferator-activated receptor-gamma. Am J Pathol174, 519-533, doi:10.2353/ajpath.2009.080574 (2009) donor one normal human dermal fibroblast cells (LLCT FC0024 lot 03869_ fibroblast) were seeded to confluence in 96 well plates in 10% fetal bovine serum (FBS) Dulbecco's modified eagle medium (DMEM). The cells were washed to remove the FBS, and serum free media was added for 16 hr overnight (O/N). Scratch assays were performed across each confluent monolayer. […] The cells were treated with increasing concentrations (1 μM, 3 μM, 10 μM, 30 μM, and 100 μM) of vehicle control, sitaxentan, and bosentan (as a comparator compound), in the presence of 50 ng/mL TGF-β1 to induce fibrogenesis. Six replicate samples were run for each concentration. Time zero images were taken and initial distance of the scratch/ablation recorded. The samples were incubated for 24 hours at 37° C., after which the media was removed and […] calcein acetoxymethyl (calcein AM) was added. The samples were incubated for 30 minutes. Images were taken and the distance of the scratch/ablation recorded. Decreases in distance indicated “wound” closure. Distances were calculated and analyzed using GraphPad Prism 7.

[3] = tested on: donor one normal human dermal fibroblasts induced with TGF-β1; experiment: Apoptosis assay (Caspase-Glo 3/7 luminescence); format: cell-based; conditions: for Apoptosis, relative light units: 50 ng/mL TGF-β1, 48 hours; for Effect on apoptosis (in words): statistics at 100 μM vs vehicle control and between groups (FIG. 6)
Procedure: The effect of sitaxentan on cell viability, cell cytotoxicity, and apoptosis was measured in an assay using donor one normal human dermal fibroblasts induced with TGF-β1 into a profibrotic phenotype. For these assays cells were grown for 48 hours in the presence of vehicle control, sitaxentan, and bosentan. The appropriate assay reagents and measuring techniques were used as indicated herein. donor one normal human dermal fibroblast cells (LLCT FC0024 lot 03869_ fibroblast) were seeded to confluence in 96 well plates in 10% fetal bovine serum (FBS) Dulbecco's modified eagle medium (DMEM). The cells were washed to remove the FBS, and serum free media is added overnight (O/N). The cells were then stimulated with 50 ng/mL TGF-β1 and treated for 48 hours. For the apoptosis assay: 100 μl of Caspase-Glo® 3/7 Reagent (Promega, Cat #G6320), for the apoptosis assay, was subsequently added after the viability/cytotoxicity fluorescent reads and briefly mixed. The plate was incubated for an additional 30 minutes at room temperature prior to the measurement of luminescence to detect apoptosis. Data were analyzed using GraphPad Prism 7. Six to nine replicates were run for each sample.

[4] = tested on: donor one normal human dermal fibroblasts induced with TGF-β1; experiment: Collagen production, AlphaLISA hPIP assay; format: cell-based; conditions: for human procollagen Type I C-peptide (HPIP) level: 50 ng/mL TGF-β1, 48 hours; for Effect on elevated collagen levels (in words): statistics at 100 μM vs vehicle control and between groups (FIG. 3)
Procedure: The effect of sitaxentan on collagen production was measured in an AlphaLISA assay using donor one normal human dermal fibroblasts induced with TGF-β1 into a profibrotic phenotype. For this assay cells were grown for 48 hours in the presence of vehicle control, sitaxentan, and bosentan. See, http://www.perkinelmer.com/product/alphalisa-hpip-collagen-[…]. An AlphaLISA assay was used, which is a variation of FRET (Fluorescence resonance energy transfer) technology that allows for the detection of molecules of interest in a no-wash, highly sensitive, quantitative assay. In an AlphaLISA assay, a biotinylated anti-analyte antibody binds to Streptavidin-coated donor beads while another anti-analyte antibody is conjugated to AlphaLISA Acceptor beads. In the presence of the analyte, the beads come into close proximity. The excitation of the donor beads cause the release of singlet oxygen molecules that trigger a cascade of energy transfer in the acceptor beads, resulting in a sharp peak of light emission at 615 nm. donor one normal human dermal fibroblast cells (LLCT FC0024 lot 03869_ fibroblast) were seeded to confluence in 96 well plates in 10% fetal bovine serum (FBS) Dulbecco's modified eagle medium (DMEM). The cells were washed to remove the FBS, and serum free media was added overnight (O/N). The cells were then stimulated with 50 ng/mL TGF-β1 and treated. The supernatant media above the cells in the wells was collected and diluted 1:20 in serum-free DMEM media. 5 μL of each hPIP analyte standard or 5 μL of sample was added. 10 μL of 5× […] Acceptor beads was added (10 μg/mL final). The plate was incubated 30 minutes at 23° C. 10 μL of 5× Biotinylated Anti-hPIP Antibody was added (1 nM). The plate was incubated 60 minutes at 23° C. 25 μL of 2× Streptavidin-Donor beads were added (40 μg/mL final). The plate was incubated 30 minutes at 23° C. in the dark. The plate was read using a Perkin Elmer EnVision-Alpha Reader (615 nm). Data were analyzed using GraphPad Prism 7. Three to four replicates were run for each sample.

[5] = tested on: donor one normal human dermal fibroblasts induced with TGF-β1; experiment: Cell viability assay (GF-AFC fluorescence); format: cell-based; conditions: 50 ng/mL TGF-β1, 48 hours
Procedure: (§1) The effect of sitaxentan on cell viability, cell cytotoxicity, and apoptosis was measured in an assay using donor one normal human dermal fibroblasts induced with TGF-β1 into a profibrotic phenotype. For these assays cells were grown for 48 hours in the presence of vehicle control, sitaxentan, and bosentan. The appropriate assay reagents and measuring techniques were used as indicated herein. donor one normal human dermal fibroblast cells (LLCT FC0024 lot 03869_ fibroblast) were seeded to confluence in 96 well plates in 10% fetal bovine serum (FBS) Dulbecco's modified eagle medium (DMEM). The cells were washed to remove the FBS, and serum free media is added overnight (O/N). The cells were then stimulated with 50 ng/mL TGF-β1 and treated for 48 hours. The following reagents were used for the different assays: For the cell viability/cytotoxicity assay: A master mix of the viability/cytotoxicity reagent was made by combining 10 uL of each substrate (GF-AFC and bis-AAF-R110) to 2 mLs of Assay Buffer (Promega, Cat #G6320). 20 μl of this viability/cytotoxicity reagent was then added to each well and briefly mixed. […] Data were analyzed using GraphPad Prism 7. Six to nine replicates were run for each sample.

[6] = tested on: donor one normal human dermal fibroblasts induced with TGF-β1; experiment: Cell cytotoxicity assay (bis-AAF-R110 fluorescence); format: cell-based; conditions: for Cell cytotoxicity, relative fluorescence units: 50 ng/mL TGF-β1, 48 hours; for Cytotoxicity compared to the vehicle control (in words): statistics at 100 μM (FIG. 5); for Cytotoxicity, bosentan compared with sitaxentan (in words): statistics at 100 μM between groups (FIG. 5)
Procedure: as §1

[7] = oral bosentan; cited from earlier work

SMILES	Scratch assay distance change ([2]; 1 μM)	Scratch assay distance change ([2]; 3 μM)	Scratch assay distance change ([2]; 10 μM)	Scratch assay distance change ([2]; 30 μM)	Scratch assay distance change ([2]; 100 μM)	Effect on migration of fibroblasts (in words) [2]	Apoptosis, relative light units ([3]; 1 μM)	Apoptosis, relative light units ([3]; 3 μM)	Apoptosis, relative light units ([3]; 10 μM)	Apoptosis, relative light units ([3]; 30 μM)	Apoptosis, relative light units ([3]; 100 μM)	Effect on apoptosis (in words) [3]	human procollagen Type I C-peptide (HPIP) level ([4]; 1 μM)	human procollagen Type I C-peptide (HPIP) level ([4]; 3 μM)	human procollagen Type I C-peptide (HPIP) level ([4]; 10 μM)	human procollagen Type I C-peptide (HPIP) level ([4]; 30 μM)	human procollagen Type I C-peptide (HPIP) level ([4]; 100 μM)	Effect on elevated collagen levels (in words) [4]	Cell viability, relative fluorescence units ([5]; 1 μM)	Cell viability, relative fluorescence units ([5]; 3 μM)	further results
Cc1cc2c(cc1CC(=O)c1sccc1S(=O)(=O)Nc1onc(C)c1Cl)OCO2 [SIT, N-(4-Chloro-3-methyl-5-isoxazolyl)-2-[(2-methyl-4,5-methylenedioxyphenyl)-acetyl]thiophene-3-sulfonamide]	506 µm	557 µm	496 µm	494 µm	269 µm	significantly reduced the migration	37593.4 RLUs	39162.8 RLUs	39512.0 RLUs	46053.5 RLUs	51050.2 RLUs	significantly more potent effect than bosentan	7.0 ng/mL	7.1 ng/mL	6.4 ng/mL	5.8 ng/mL	2.2 ng/mL	significantly more efficacious than bosentan and returning collagen levels to untreated / uninduced levels	5678.3 RFUs	5639.0 RFUs	Metabolism [1]: hepatic (CYP2C9- and CYP3A4-mediated); Protein binding [1]: > 99%; Cell viability, relative fluorescence units ([5]; 10 μM): 5600.5 RFUs; Cell viability, relative fluorescence units ([5]; 30 μM): 5250.8 RFUs; Cell viability, relative fluorescence units ([5]; 100 μM): 5171.0 RFUs; Cell cytotoxicity, relative fluorescence units ([6]; 1 μM): 4643.9 RFUs; Cell cytotoxicity, relative fluorescence units ([6]; 3 μM): 5058.3 RFUs; Cell cytotoxicity, relative fluorescence units ([6]; 10 μM): 4741.7 RFUs; Cell cytotoxicity, relative fluorescence units ([6]; 30 μM): 3837.5 RFUs; Cell cytotoxicity, relative fluorescence units ([6]; 100 μM): 2911.3 RFUs; Cytotoxicity compared to the vehicle control (in words) [6]: neither bosentan nor sitaxentan was significantly more cytotoxic than the vehicle control; Cytotoxicity, bosentan compared with sitaxentan (in words) [6]: significantly less cytotoxic
COc1ccccc1Oc1c(NS(=O)(=O)c2ccc(C(C)(C)C)cc2)nc(-c2ncccn2)nc1OCCO [BOS]	478 µm	356 µm	359 µm	535 µm	414 µm	no significant effect	39366.8 RLUs	38639.8 RLUs	38586.7 RLUs	42825.2 RLUs	43330.7 RLUs	elevated	8.2 ng/mL	8.6 ng/mL	7.9 ng/mL	7.1 ng/mL	6.8 ng/mL	significantly decreased elevated collagen levels	5406.8 RFUs	5548.5 RFUs	Cessation of treatment due to liver enzyme abnormalities, share of patients [7]: about 5%; Liver enzyme abnormalities, share of patients affected [7]: about 10%; Cell viability, relative fluorescence units ([5]; 10 μM): 5521.2 RFUs; Cell viability, relative fluorescence units ([5]; 30 μM): 5537.0 RFUs; Cell viability, relative fluorescence units ([5]; 100 μM): 5584.3 RFUs; Cell cytotoxicity, relative fluorescence units ([6]; 1 μM): 4256.9 RFUs; Cell cytotoxicity, relative fluorescence units ([6]; 3 μM): 3954.2 RFUs; Cell cytotoxicity, relative fluorescence units ([6]; 10 μM): 3764.0 RFUs; Cell cytotoxicity, relative fluorescence units ([6]; 30 μM): 4607.5 RFUs; Cell cytotoxicity, relative fluorescence units ([6]; 100 μM): 3929.0 RFUs; Cytotoxicity compared to the vehicle control (in words) [6]: neither bosentan nor sitaxentan was significantly more cytotoxic than the vehicle control; Cytotoxicity, bosentan compared with sitaxentan (in words) [6]: significantly more cytotoxic than sitaxentan
